The values that follow come from BindingDB's records for doi:10.7270/Q2N58K09 (The Scripps Research Institute Molecular Screening Center, 2013).

As usually defined, the IC50 is the midpoint of a concentration-inhibition curve. Read a low IC50 as greater potency in that assay.

In this assay the target is Huntingtin (Homo sapiens, UniProt P42858).
Chain of Huntingtin (P42858 whole entry): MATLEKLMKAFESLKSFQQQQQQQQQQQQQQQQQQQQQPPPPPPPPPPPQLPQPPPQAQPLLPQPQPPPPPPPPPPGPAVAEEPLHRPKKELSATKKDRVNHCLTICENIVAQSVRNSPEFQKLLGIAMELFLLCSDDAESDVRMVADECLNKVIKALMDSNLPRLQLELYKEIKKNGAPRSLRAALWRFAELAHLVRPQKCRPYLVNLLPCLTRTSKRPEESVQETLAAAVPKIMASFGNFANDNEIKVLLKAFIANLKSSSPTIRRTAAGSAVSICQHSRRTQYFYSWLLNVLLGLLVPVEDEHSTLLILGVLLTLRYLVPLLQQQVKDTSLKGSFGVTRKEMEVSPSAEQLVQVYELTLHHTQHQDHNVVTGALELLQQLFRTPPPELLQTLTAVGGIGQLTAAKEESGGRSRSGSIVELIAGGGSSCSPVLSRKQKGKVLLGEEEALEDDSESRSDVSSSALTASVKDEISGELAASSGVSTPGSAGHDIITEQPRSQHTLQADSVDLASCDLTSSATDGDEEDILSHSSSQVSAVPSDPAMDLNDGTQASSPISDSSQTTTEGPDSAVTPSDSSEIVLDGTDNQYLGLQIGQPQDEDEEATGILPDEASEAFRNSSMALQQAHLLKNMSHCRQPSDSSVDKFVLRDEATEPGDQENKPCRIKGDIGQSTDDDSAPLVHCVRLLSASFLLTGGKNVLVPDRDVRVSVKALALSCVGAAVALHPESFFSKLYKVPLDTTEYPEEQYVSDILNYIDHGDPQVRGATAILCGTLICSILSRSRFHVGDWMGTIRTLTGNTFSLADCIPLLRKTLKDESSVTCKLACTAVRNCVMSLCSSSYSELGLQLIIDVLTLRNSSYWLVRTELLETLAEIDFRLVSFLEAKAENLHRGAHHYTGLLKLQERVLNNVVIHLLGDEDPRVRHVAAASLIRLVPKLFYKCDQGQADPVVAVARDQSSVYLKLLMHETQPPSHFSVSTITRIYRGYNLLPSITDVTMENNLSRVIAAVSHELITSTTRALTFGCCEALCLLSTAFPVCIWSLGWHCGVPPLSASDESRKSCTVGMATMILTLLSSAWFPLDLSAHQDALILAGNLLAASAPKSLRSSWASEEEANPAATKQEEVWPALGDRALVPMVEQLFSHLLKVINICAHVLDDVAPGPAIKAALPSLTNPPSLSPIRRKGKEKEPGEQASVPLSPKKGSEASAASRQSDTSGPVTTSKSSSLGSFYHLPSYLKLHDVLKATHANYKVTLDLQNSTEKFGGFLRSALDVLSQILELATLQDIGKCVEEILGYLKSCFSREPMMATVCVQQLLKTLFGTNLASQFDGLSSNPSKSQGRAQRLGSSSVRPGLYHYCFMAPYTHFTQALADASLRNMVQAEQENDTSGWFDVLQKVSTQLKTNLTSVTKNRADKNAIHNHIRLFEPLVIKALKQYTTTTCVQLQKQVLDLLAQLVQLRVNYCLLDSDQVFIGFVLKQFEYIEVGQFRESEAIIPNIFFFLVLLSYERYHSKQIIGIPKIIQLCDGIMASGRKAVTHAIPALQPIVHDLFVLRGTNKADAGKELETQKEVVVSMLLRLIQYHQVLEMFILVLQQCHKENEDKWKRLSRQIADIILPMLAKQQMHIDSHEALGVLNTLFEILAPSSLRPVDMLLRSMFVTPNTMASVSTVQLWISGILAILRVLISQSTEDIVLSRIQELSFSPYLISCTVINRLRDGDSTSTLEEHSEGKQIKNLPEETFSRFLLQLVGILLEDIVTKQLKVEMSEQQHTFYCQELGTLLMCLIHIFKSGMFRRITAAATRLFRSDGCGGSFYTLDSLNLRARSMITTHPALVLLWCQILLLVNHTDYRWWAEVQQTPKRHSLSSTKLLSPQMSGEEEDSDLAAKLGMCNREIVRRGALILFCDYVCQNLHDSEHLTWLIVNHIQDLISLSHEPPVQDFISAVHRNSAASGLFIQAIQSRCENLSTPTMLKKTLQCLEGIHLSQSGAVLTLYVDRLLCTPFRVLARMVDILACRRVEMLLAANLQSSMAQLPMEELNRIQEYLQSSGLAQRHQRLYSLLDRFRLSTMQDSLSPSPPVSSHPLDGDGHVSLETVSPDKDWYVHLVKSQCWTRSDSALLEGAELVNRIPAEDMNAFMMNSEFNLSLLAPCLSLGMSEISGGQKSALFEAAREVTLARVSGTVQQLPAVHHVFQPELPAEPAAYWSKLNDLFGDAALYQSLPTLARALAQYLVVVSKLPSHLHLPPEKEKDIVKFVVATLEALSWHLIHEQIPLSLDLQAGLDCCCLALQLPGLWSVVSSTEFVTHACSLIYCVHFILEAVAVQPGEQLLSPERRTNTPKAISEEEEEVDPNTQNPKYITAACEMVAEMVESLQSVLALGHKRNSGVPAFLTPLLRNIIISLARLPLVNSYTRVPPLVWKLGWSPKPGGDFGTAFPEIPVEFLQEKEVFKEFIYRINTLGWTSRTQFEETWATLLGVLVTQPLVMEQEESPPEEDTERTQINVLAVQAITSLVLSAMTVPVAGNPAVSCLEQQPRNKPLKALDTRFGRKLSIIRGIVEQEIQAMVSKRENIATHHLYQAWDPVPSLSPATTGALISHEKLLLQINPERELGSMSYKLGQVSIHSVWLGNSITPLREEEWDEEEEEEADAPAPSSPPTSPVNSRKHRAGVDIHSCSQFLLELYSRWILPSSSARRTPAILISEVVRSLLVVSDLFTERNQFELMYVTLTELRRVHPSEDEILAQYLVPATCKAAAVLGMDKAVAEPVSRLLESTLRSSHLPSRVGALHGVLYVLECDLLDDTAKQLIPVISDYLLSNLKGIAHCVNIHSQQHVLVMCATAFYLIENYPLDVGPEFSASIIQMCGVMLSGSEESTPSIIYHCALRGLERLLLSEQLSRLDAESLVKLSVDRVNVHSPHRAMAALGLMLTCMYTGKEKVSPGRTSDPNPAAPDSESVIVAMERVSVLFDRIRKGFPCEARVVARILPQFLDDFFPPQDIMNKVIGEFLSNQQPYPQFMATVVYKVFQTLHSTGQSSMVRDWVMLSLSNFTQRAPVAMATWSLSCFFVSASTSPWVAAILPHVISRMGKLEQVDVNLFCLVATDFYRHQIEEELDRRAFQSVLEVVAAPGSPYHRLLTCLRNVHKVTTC
In turn, `C=CCOc1c(OC)cc(CN=Nc2cccc(C(=O)O)c2)c(Br)c1Br` displayed an IC50 of 2280 nM.

Compound `O=C1C(=O)N(c2nc3ccc(Cl)cc3s2)C(c2ccco2)C1C(=O)c1ccco1` (stereo unspecified) gave an IC50 of 987 nM.

`CC(C)c1ccc(C2c3[nH]c4ccccc4c3Cc3c(O)n(-c4ccccc4C(=O)N4CCC[C@@H]4C(=O)O)c(=O)n32)cc1` (stereo partly specified) showed an IC50 of 2840 nM. This IC50 is about 2.9-fold higher than that of the compound before.

In turn, `CC(C)c1ccc(C2c3[nH]c4ccccc4c3Cc3c(O)n(-c4ccccc4C(=O)N4CCC[C@H]4C(=O)O)c(=O)n32)cc1` (stereo partly specified) showed a concentration for half-maximal inhibition (IC50) of 3350 nM.

Compound `CCCOc1cccc(C2C(C(=O)c3ccc(C)o3)C(=O)C(=O)N2c2nc(C)c(C(C)=O)s2)c1` (stereo unspecified) returned an IC50 of 4060 nM. This IC50 and that of the compound before are within 1.5-fold of each other.

On to `CC(=O)C1C(=O)C(=O)N(c2cc(C(C)(C)C)on2)C1c1ccc(Br)cc1` (stereo unspecified), for which the IC50 stood at 2490 nM.

As for `CCN(CC)C(=O)NC1CC2CCCC(C1)N2Cc1ccccc1` (stereo unspecified) [1,1-diethyl-3-[9-(phenylmethyl)-9-azabicyclo[3.3.1]nonan-3-yl]urea], it took 2830 nM to reach half-maximal inhibition (IC50). This IC50 and that of the compound before are within 1.5-fold of each other.

`CCCOc1ccc(-n2c(O)cc(SC(=N)NN=C(C)c3cccs3)c2O)cc1` [2,5-dioxo-1-(4-propoxyphenyl)-3-pyrrolidinyl 2-[1-(2-thienyl)ethylidene]hydrazinecarbimidothioate] had an IC50 of 7760 nM.

In turn, `COc1ccc2nc(N3C(=O)C(=O)C(C(=O)c4ccco4)C3c3ccc(OC)c(OC)c3)sc2c1` (stereo unspecified) [2-(3,4-dimethoxyphenyl)-3-(furan-2-carbonyl)-4-hydroxy-1-(6-methoxy-1,3-benzothiazol-2-yl)-2H-pyrrol-5-one] yielded an IC50 of 2040 nM.

For `N#CC(C#N)C(=Nc1ccc(F)cc1)SCc1cccc(Br)c1` [2-[(3-bromophenyl)methylsulfanyl-[(4-fluorophenyl)amino]methylidene]propanedinitrile], it took 7570 nM to reach half-maximal inhibition (IC50).

`Cc1cc(N2C(=O)C(=O)C(C(=O)c3cc4ccccc4o3)C2c2cccc(Cl)c2)no1` (stereo unspecified) [3-(1-benzofuran-2-ylcarbonyl)-2-(3-chlorophenyl)-1-(5-methyl-1,2-oxazol-3-yl)-4-oxidanyl-2H-pyrrol-5-one] had an IC50 of 1190 nM.

`Cc1ccc2nc(N3C(=O)C(=O)C(C(=O)c4ccco4)C3c3ccc(C)o3)sc2c1` (stereo unspecified) [3-[2-furanyl(oxo)methyl]-4-hydroxy-1-(6-methyl-1,3-benzothiazol-2-yl)-2-(5-methyl-2-furanyl)-2H-pyrrol-5-one;oxalic acid]: it took 624 nM to reach half-maximal inhibition (IC50). This IC50 is about 1.9-fold lower than that of the compound before.

With `Cc1ccc2c(c1)C(=NNc1cccc(C(=O)O)c1)C(=O)N2C` [3-[(2Z)-2-(1,5-dimethyl-2-oxidanylidene-indol-3-ylidene)hydrazinyl]benzoic acid], the IC50 is 5070 nM.

Regarding `Cc1[nH]n(C(N)=S)c(=O)c1N=Nc1c(Br)cc(Br)cc1Br` [3-methyl-5-oxo-4-[(2,4,6-tribromophenyl)diazenyl]-4H-pyrazole-1-carbothioamide], the midpoint of inhibition, the IC50, lay at 5730 nM.

Compound `N#CC1=c2sc(=Cc3ccco3)c(=O)n2C(=N)C(C#N)C1c1ccco1` (stereo unspecified) [5-amino-7-(furan-2-yl)-2-(furan-2-ylmethylidene)-3-oxo-7H-[1,3]thiazolo[3,2-a]pyridine-6,8-dicarbonitrile] yielded an IC50 of 5380 nM.

`CCOC(=O)C1=C(C)N=C(SCc2cc(=O)[nH][nH]2)C(C#N)C1c1cccs1` (stereo unspecified) [5-cyano-2-methyl-6-[(5-oxo-1,2-dihydropyrazol-3-yl)methylthio]-4-thiophen-2-yl-1,4-dihydropyridine-3-carboxylic acid ethyl ester] returned an IC50 of 7400 nM.

In turn, `N#CC(C(=O)Nc1ccc(Cl)cc1)C(=S)Nc1ccccc1` (stereo unspecified) [(Z)-3-anilino-N-(4-chlorophenyl)-2-cyano-3-sulfanylprop-2-enamide] registered an IC50 of 6140 nM.

Take `CC(=NNC(=N)Sc1cc(O)n(-c2cccc(Cl)c2)c1O)c1cccs1` [MLS000579124]: half-maximal inhibition (IC50) was put at 5190 nM. The IC50 values of the last two compounds are within 1.5-fold of each other.

`N#CC1C(=O)NC(c2ccc(-c3cc(Cl)ccc3Cl)o2)N(c2ccccc2)C1=S` (stereo unspecified) [MLS000592167] returned a 50% inhibitory concentration (IC50) of 1470 nM. This IC50 lies about 3.5-fold lower than the previous one.

Consider `CCc1nnc(NS(=O)(=O)c2ccc(N=CCC(=O)c3ccc(C)cc3)cc2)s1` [SMR000211931], for which the IC50 is 1900 nM. This IC50 and that of the compound before are within 1.5-fold of each other.

The compound `C=c1c(C#N)c2[nH]c(N)c(C#N)c(C)c-2c1=Cc1ccc(-c2ccccc2C(=O)O)o1` [SMR000277284] showed an IC50 of 2570 nM.

Compound `COC1=CC(=Cc2c(-c3ccccc3)[nH]n(-c3ccc(NC(C)=O)cc3)c2=O)C=CC1=O` [SMR000299432] gave an IC50 of 2900 nM.

`O=C(O)c1ccc(-n2c(O)cc(SC(=Nc3ccc(F)cc3)NCc3ccc4c(c3)OCO4)c2O)cc1` [SMR000313486] came in with an IC50 of 2890 nM. The IC50 values of the last two compounds are within 1.5-fold of each other.

`Oc1ccc(CN=Nc2ccnc3cc(Cl)ccc23)c(O)c1O` [SMR000590557] yielded an IC50 of 2500 nM.

For `N=C(NN=Cc1cccs1)Sc1cc(O)n(-c2ccc(Br)cc2)c1O` [[1-(4-bromophenyl)-2,5-dioxopyrrolidin-3-yl] N'-[(E)-thiophen-2-ylmethylideneamino]carbamimidothioate], inhibition was half-maximal at 8270 nM (IC50).

Consider `COC(=O)c1sc(N2C(=O)C(=O)C(C(=O)c3ccc(C)o3)C2c2ccc([N+](=O)[O-])cc2)nc1C` (stereo unspecified) [methyl 2-[4-hydroxy-3-(5-methylfuran-2-carbonyl)-2-(4-nitrophenyl)-5-oxo-2H-pyrrol-1-yl]-4-methyl-1,3-thiazole-5-carboxylate], for which inhibition was half-maximal at 636 nM (IC50).
